According to PubChem BioAssay AID248 (DTP/NCI, 2004):
Where “and” joins values, the source holds several entries; their conditions need not be identical. Identical values can stand only once. Toxic doses and inconclusive results are not listed.

Test system: L1210 leukemia ip in BDF1 mice, survival T/C
Experiment: NCI In Vivo Anticancer Drug Screen. Data for tumor model L1210 Leukemia (intraperitoneal) in B6D2F1 (BDF1) mice
Settings: endpoint: mean survival time, higher = longer survival
How it was run: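 Value reflects the ratio of survival in compound-treated mice to survival in vehicle-treated controls, with both groups carrying the same transplanted tumor.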

[1] = dose: 100.0 mg/kg/injection, schedule: Q04DX003 (ip), vehicle: saline with Tween-80
[2] = dose: 200.0 mg/kg/injection, schedule: Q04DX003 (ip), vehicle: saline with Tween-80
[3] = dose: 400.0 mg/kg/injection, schedule: Q04DX003 (ip), vehicle: saline with Tween-80
[4] = dose: 100.0 mg/kg/injection, schedule: Q01DX009 (ip), vehicle: saline with Tween-80
[5] = dose: 200.0 mg/kg/injection, schedule: Q01DX009 (ip), vehicle: saline with Tween-80
[6] = dose: 400.0 mg/kg/injection, schedule: Q01DX009 (ip), vehicle: saline with Tween-80
[7] = dose: 100.0 mg/kg/injection, schedule: Q01DX001 (ip), vehicle: Klucel (hydroxypropylcellulose) (HPC)
[8] = dose: 200.0 mg/kg/injection, schedule: Q01DX001 (ip), vehicle: Klucel (hydroxypropylcellulose) (HPC)
[9] = dose: 100.0 mg/kg/injection, schedule: Q04DX003 (ip), vehicle: Klucel (hydroxypropylcellulose) (HPC)

For Cc1noc(-n2c(C)ccc2C)c1C, the T/C (dose: 100.0 mg/kg/injection, schedule: Q04DX003 (ip), vehicle: saline) was 97 % of control, the T/C (dose: 200.0 mg/kg/injection, schedule: Q04DX003 (ip), vehicle: saline) was 100 % of control and the T/C (dose: 400.0 mg/kg/injection, schedule: Q04DX003 (ip), vehicle: saline) was 95 % of control.

In the case of O=C(Nc1ccc(C2=NCCN2)cc1)Nc1cccc(NC(=S)Nc2ccc(C3=NCCN3)cc2)c1, the T/C (dose: 1.88 mg/kg/injection, schedule: Q01DX Z (ip), vehicle: saline) is reported as 95 % of control, the T/C (dose: 3.75 mg/kg/injection, schedule: Q01DX Z (ip), vehicle: saline) is reported as 103 % of control and the T/C (dose: 7.5 mg/kg/injection, schedule: Q01DX Z (ip), vehicle: saline) is reported as 113 % of control. The T/C (dose: 15.0 mg/kg/injection, schedule: Q01DX Z (ip), vehicle: saline) was 150 % of control, the T/C (dose: 15.0 mg/kg/injection, schedule: Q01DX Z (oral), vehicle: saline) was 97 % of control and the T/C (dose: 30.0 mg/kg/injection, schedule: Q01DX Z (ip), vehicle: saline) was 150 % of control. For the same compound, the T/C (dose: 30.0 mg/kg/injection, schedule: Q01DX Z (oral), vehicle: saline) was 100 % of control, the T/C (dose: 60.0 mg/kg/injection, schedule: Q01DX Z (oral), vehicle: saline) was 97 % of control and the T/C (dose: 120.0 mg/kg/injection, schedule: Q01DX Z (oral), vehicle: saline) was 107 % of control.

With Cc1ccc(S(=O)(=O)Nc2ccccc2-c2nc3ccc(C)cc3c(=O)o2)cc1 the T/C [1] was 88 % of control, the T/C [2] was 94 % of control and the T/C [3] was 116 % of control.

In the case of Cc1c(-c2ccc(Cl)cc2)nc2cc(Cl)ccc2c1C(=O)O, the T/C (dose: 100.0 mg/kg/injection, schedule: Q01DX005 (ip), vehicle: saline) is reported as 107 % of control, the T/C (dose: 100.0 mg/kg/injection, schedule: Q01DX009 (ip), vehicle: saline) is reported as 100 % of control and the T/C (dose: 200.0 mg/kg/injection, schedule: Q01DX005 (ip), vehicle: saline) is reported as 93 % of control. For the same compound, the T/C (dose: 200.0 mg/kg/injection, schedule: Q01DX009 (ip), vehicle: saline) was 103 % of control and the T/C (dose: 400.0 mg/kg/injection, schedule: Q01DX005 (ip), vehicle: saline) was 91 % of control.

In the case of COc1cc(OC)c2c(c1)-n1cccc1C2=O, the T/C (dose: 100.0 mg/kg/injection, schedule: Q04DX002 (ip), vehicle: Klucel (hydroxypropylcellulose) (HPC)) is reported as 101 % of control, the T/C (dose: 200.0 mg/kg/injection, schedule: Q04DX002 (ip), vehicle: Klucel (hydroxypropylcellulose) (HPC)) is reported as 104 % of control and the T/C (dose: 400.0 mg/kg/injection, schedule: Q04DX002 (ip), vehicle: Klucel (hydroxypropylcellulose) (HPC)) is reported as 93 % of control.

In the case of O=C(/C=C/c1ccccc1)c1ccccn1, the T/C [1] is reported as 100 % of control, the T/C [2] is reported as 104 % of control and the T/C [3] is reported as 100 % of control.

For O=C(NCCCNC(=O)Nc1cccc(C2=NCCCN2)c1)Nc1cccc(C2=NCCCN2)c1, the T/C (dose: 0.5 mg/kg/injection, schedule: Q01DX Z (ip), vehicle: carboxymethylcellulose (CMC)) was 104 % of control, the T/C (dose: 1.0 mg/kg/injection, schedule: Q01DX Z (ip), vehicle: carboxymethylcellulose (CMC)) was 106 % of control and the T/C (dose: 2.0 mg/kg/injection, schedule: Q01DX Z (ip), vehicle: carboxymethylcellulose (CMC)) was 96 % of control.

For O=C(Nc1ccsn1)c1ccc(Cl)cc1Cl, the T/C (dose: 50.0 mg/kg/injection, schedule: Q01DX009 (ip), vehicle: saline with Tween-80) was 111 % of control, the T/C [4] was 91 % of control and the T/C [5] was 91 % of control.

For O=C(Nc1ccc([N+](=O)[O-])cc1Cl)N(CCO)C1CCCCC1, the T/C [4] was 96 % of control, the T/C [1] was 102 % of control and the T/C [5] was 106 % of control. For the same compound, the T/C [2] was 101 % of control, the T/C [6] was 116 % of control and the T/C [3] was 90 % of control.

Nc1ncnc(N)c1NC(=O)CCCc1ccc([N+](=O)[O-])cc1 was tested, and the T/C (dose: 50.0 mg/kg/injection, schedule: Q01DX001 (ip), vehicle: Klucel (hydroxypropylcellulose) (HPC)) was 102 % of control, the T/C [7] was 98 % of control and the T/C [8] was 94 % of control.

With C[n+]1c(/C=C/c2ccc3c(c2)OCO3)ccc2ccccc21 the T/C (dose: 25.0 mg/kg/injection, schedule: Q01DX009 (ip), vehicle: saline with Tween-80) was 108 % of control, the T/C (dose: 25.0 mg/kg/injection, schedule: Q04DX003 (ip), vehicle: Klucel (hydroxypropylcellulose) (HPC)) was 106 % of control and the T/C (dose: 33.0 mg/kg/injection, schedule: Q01DX009 (ip), vehicle: gum acacia) was 114 % of control. For the same compound, the T/C (dose: 50.0 mg/kg/injection, schedule: Q01DX009 (ip), vehicle: gum acacia) was 98 % of control, the T/C (dose: 50.0 mg/kg/injection, schedule: Q04DX003 (ip), vehicle: Klucel (hydroxypropylcellulose) (HPC)) was 101 % of control and the T/C [9] was 95 % of control and 89 % of control.

For Cc1cnc(-n2nc(-c3ccccc3)cc2-c2ccccc2)nc1-c1ccccc1O, the T/C (dose: 12.5 mg/kg/injection, schedule: Q01DX009 (ip), vehicle: Klucel (hydroxypropylcellulose) (HPC)) was 87 % of control, the T/C (dose: 25.0 mg/kg/injection, schedule: Q01DX009 (ip), vehicle: Klucel (hydroxypropylcellulose) (HPC)) was 91 % of control and the T/C (dose: 50.0 mg/kg/injection, schedule: Q01DX009 (ip), vehicle: Klucel (hydroxypropylcellulose) (HPC)) was 97 % of control and 92 % of control.

CCCCCCCN(CCCCCCC)CC(O)c1cc(-c2ccc(Cl)cc2)nc2c(C(F)(F)F)cccc12 (configuration not stated) was tested, and the T/C [7] was 104 % of control, the T/C [4] was 102 % of control and the T/C [8] was 96 % of control. The T/C [5] was 100 % of control, the T/C (dose: 400.0 mg/kg/injection, schedule: Q01DX001 (ip), vehicle: Klucel (hydroxypropylcellulose) (HPC)) was 100 % of control and the T/C [6] was 100 % of control.

For CCOC(=O)c1ccc(N=NN(C)C2CCCCC2)cc1, the T/C (dose: 100.0 mg/kg/injection, schedule: Q01DX001 (sc), vehicle: olive oil, sesame oil, peanut oil) was 102 % of control, the T/C (dose: 100.0 mg/kg/injection, schedule: Q01DX009 (sc), vehicle: olive oil, sesame oil, peanut oil) was 104 % of control and the T/C (dose: 100.0 mg/kg/injection, schedule: Q04DX003 (sc), vehicle: olive oil, sesame oil, peanut oil) was 102 % of control. For the same compound, the T/C (dose: 200.0 mg/kg/injection, schedule: Q01DX001 (sc), vehicle: olive oil, sesame oil, peanut oil) was 102 % of control, the T/C (dose: 200.0 mg/kg/injection, schedule: Q01DX009 (sc), vehicle: olive oil, sesame oil, peanut oil) was 116 % of control and the T/C (dose: 200.0 mg/kg/injection, schedule: Q04DX003 (sc), vehicle: olive oil, sesame oil, peanut oil) was 103 % of control. The T/C (dose: 400.0 mg/kg/injection, schedule: Q01DX001 (sc), vehicle: olive oil, sesame oil, peanut oil) was 98 % of control, the T/C (dose: 400.0 mg/kg/injection, schedule: Q01DX009 (sc), vehicle: olive oil, sesame oil, peanut oil) was 104 % of control and the T/C (dose: 400.0 mg/kg/injection, schedule: Q04DX003 (sc), vehicle: olive oil, sesame oil, peanut oil) was 100 % of control.

For COc1cccc(C(=O)C(CCC#N)c2ccccc2)c1 (configuration not stated), the T/C (dose: 100.0 mg/kg/injection, schedule: Q01DX009 (ip), vehicle: Klucel (hydroxypropylcellulose) (HPC)) was 98 % of control, the T/C [9] was 106 % of control and the T/C (dose: 200.0 mg/kg/injection, schedule: Q01DX009 (ip), vehicle: Klucel (hydroxypropylcellulose) (HPC)) was 98 % of control. For the same compound, the T/C (dose: 200.0 mg/kg/injection, schedule: Q04DX003 (ip), vehicle: Klucel (hydroxypropylcellulose) (HPC)) was 100 % of control, the T/C (dose: 400.0 mg/kg/injection, schedule: Q01DX009 (ip), vehicle: Klucel (hydroxypropylcellulose) (HPC)) was 96 % of control and the T/C (dose: 400.0 mg/kg/injection, schedule: Q04DX003 (ip), vehicle: Klucel (hydroxypropylcellulose) (HPC)) was 95 % of control.

O=C(Nc1ccc(Nc2ccccc2)cc1)Nc1ccccc1C(F)(F)F was tested, and the T/C (dose: 50.0 mg/kg/injection, schedule: Q01DX001 (ip), vehicle: carboxymethylcellulose (CMC)) was 95 % of control, the T/C (dose: 50.0 mg/kg/injection, schedule: Q04DX003 (ip), vehicle: carboxymethylcellulose (CMC)) was 100 % of control and the T/C (dose: 100.0 mg/kg/injection, schedule: Q01DX001 (ip), vehicle: carboxymethylcellulose (CMC)) was 105 % of control. For the same compound, the T/C (dose: 100.0 mg/kg/injection, schedule: Q01DX009 (ip), vehicle: carboxymethylcellulose (CMC)) was 88 % of control, the T/C (dose: 100.0 mg/kg/injection, schedule: Q04DX002 (ip), vehicle: carboxymethylcellulose (CMC)) was 102 % of control and 106 % of control and the T/C (dose: 100.0 mg/kg/injection, schedule: Q04DX003 (ip), vehicle: carboxymethylcellulose (CMC)) was 93 % of control. The T/C (dose: 200.0 mg/kg/injection, schedule: Q01DX001 (ip), vehicle: carboxymethylcellulose (CMC)) was 92 % of control, the T/C (dose: 200.0 mg/kg/injection, schedule: Q01DX009 (ip), vehicle: carboxymethylcellulose (CMC)) was 86 % of control and 92 % of control and the T/C (dose: 200.0 mg/kg/injection, schedule: Q04DX002 (ip), vehicle: carboxymethylcellulose (CMC)) was 94 % of control and 97 % of control. The T/C (dose: 400.0 mg/kg/injection, schedule: Q01DX009 (ip), vehicle: carboxymethylcellulose (CMC)) was 92 % of control and the T/C (dose: 400.0 mg/kg/injection, schedule: Q04DX002 (ip), vehicle: carboxymethylcellulose (CMC)) was 94 % of control and 92 % of control.
